“Also recorded” adds a separate entry of the source.
How the values were obtained:
[1] = system: wounds of non-diabetic Nrf2+/+ mice; experiment: Wound closure in non-diabetic mice; format: in vivo, mouse; conditions: non-diabetic Nrf2+/+ mice treated with SF or CA vs corn oil; up to 14 days
Source text: Diabetes mouse model and treatments. Nrf2^+/+ and Nrf2^-/- C57BL/6 mice were described previously (see, e.g., Jiang T, et al., Diabetes 59:850-860, 2010) and were housed and handled in accordance with the University of Arizona Institutional Animal Care policies. The STZ-induced diabetic model was previously described (see, e.g., Zheng H, et al., Diabetes 60:3055-3066, 2011) and only 8 week old male mice were included in this study. Briefly, three weeks after STZ injections, fasting glucose levels (FGL, 4 h fast) were measured using the AlphaTRAK system (Abbott Laboratory, North Chicago, Ill.) and mice with a FGL higher than or equal to 250 mg/dL were considered diabetic and included in the study (see, e.g., FIG. 2A and FIG. 3A for a detailed timeline). The mice (n=5-8) were then allocated randomly to each of the indicated treatment groups and received corn oil (control), 12.5 mg/kg SF or 50 mg/kg CA intraperitoneally every two days until skin tissues were harvested. One week after the treatments, the mice were anesthetized, their backs were shaved and cleaned. Two wounds were made with a sterile 6 mm skin biopsy punch (Health link, Jacksonville, Fla.) and covered with 3M Tegaderm pads. […] Gross wound closure was quantified by ImageJ software, and wound healing was expressed as the percentage of the original wound area that had healed. […]

TGF-β1 = TGF-β1 expression in wound skin tissues of STZ mice (immunoblot, IHC); format: in vivo, mouse; conditions: immunoblot and IHC, day 14
Source text: Diabetes mouse model and treatments. Nrf2^+/+ and Nrf2^-/- C57BL/6 mice were described previously (see, e.g., Jiang T, et al., Diabetes 59:850-860, 2010) and were housed and handled in accordance with the University of Arizona Institutional Animal Care policies. The STZ-induced diabetic model was previously described (see, e.g., Zheng H, et al., Diabetes 60:3055-3066, 2011) and only 8 week old male mice were included in this study. Briefly, three weeks after STZ injections, fasting glucose levels (FGL, 4 h fast) were measured using the AlphaTRAK system (Abbott Laboratory, North Chicago, Ill.) and mice with a FGL higher than or equal to 250 mg/dL were considered diabetic and included in the study (see, e.g., FIG. 2A and FIG. 3A for a detailed timeline). […] Gross wound closure was quantified by ImageJ software, and wound healing was expressed as the percentage of the original wound area that had healed. […] Morphology was assessed by hematoxylin and eosin (H&E) staining (Vector laboratory, Burlingame, Calif.). […] Protein concentration was measured using Quant-iT Protein Assay (Invitrogen) and 150 μg of protein were resolved by SDS-PAGE and immunoblotting analyses with the indicated antibodies.

SMILES: O=CC=Cc1ccccc1 [CA, Cinnamaldehyde]
- wound closure [1]: No statistically significant differences; also recorded: do not show accelerated wound closure
- TGF-β1 expression (TGF-β1): restored to levels comparable to that of Con mice

SMILES: C[S@@+]([O-])CCCCN=C=S [SF, L-sulforaphane]
- wound closure [1]: No statistically significant differences; also recorded: do not show accelerated wound closure
- TGF-β1 expression (TGF-β1): restored to levels comparable to that of Con mice
